Reference: patent US20160031937A1, “NEURAL REGENERATION PEPTIDES AND USES THEREFOR” (CURONZ HOLDINGS COMPANY LIMITED, priority 2013, published 2016)
Square brackets hold non-standard residues; d marks the D form. Ends that are not written are not given here. Aib = CC(C)(N)C(=O)O

Experiments:
[1] = tested on: human W9-hESCs; experiment: TUNEL staining for apoptotic cell death after H2O2 injury; type: cell-based; settings: H2O2 oxidative stress, 24 hours; 100 fM NRP2945
Method: Neuronal differentiation was achieved using the noggin induction method described for mouse neurospheres as adapted by Dottori for human neurospheres (Dottori & Pera, 2007). The colonies were maintained at 37° C., with 5% CO2 in hESC medium supplemented with 500 ng/ml of Noggin for 14 days while replacing Noggin every other day.
At this point, the cells were washed with PBS and the colonies were again mechanically dissociated, but this time the central (differentiated) part of the colony was also cut into smaller pieces using a 26-gauge needle. […]
The media was replaced with fresh NBM-AO and the cells were incubated for a further 20 hours containing drug, before again measuring LDH. Oxidative stress was induced by adding 50 μM fresh H2O2 (Sigma, H1009) to the growth factor negative NBM on initiation of the experiment with continued culture for 4 hours when LDH was measured and NBM-AO without H2O2 was returned to the culture which was maintained for a further 20 hours before again measuring LDH. […]
Tunnel positive cells, wells were imaged and the images re-coded independently before quantitation. No additional blinding was performed for the machine read LDH assay process.

[2] = tested on: human DU-145 prostate cancer cells; experiment: DU-145 Boyden chamber motility bioassay; type: cell-based; settings: 0.1 ng/ml NRP2945 adhered to Boyden chamber bottom plate, 24 hours of incubation
Text: Human epithelial DU-145 cells were obtained from ATCC (HTB-81). The DU-145 cell line was originally isolated from a metastatic prostate-derived cancer formed in the brain. The cells are adherent, and co-express CXCR4 and CCR3 receptors similar to neuroblasts and neurons. For this experiment, DU-145 cells were cultivated in ATCC-formulated Eagle's Minimum Essential Medium with 10% FBS in 5% CO2 at 37′C. The cells were then subcultivated as follows.
The media was removed and discarded. The cell layer was briefly rinsed with 0.25% (w/v) trypsin and 0.5 mM EDTA to remove all remaining trypsin inhibitors from the serum. To each flask, 2-3 ml of trypsin-EDTA solution was added. This was incubated at room temperature.
The cells were observed under an inverted microscope until dislodgement (between 10-15 minutes). Shaking was avoided to prevent the cells from clumping. […]
The Boyden chamber inserts (Corning) were coated for 2 hours at 37° C. with […] poly-D-lysine (PDL; culture grade from Invitrogen). […] The coated Boyden chamber could then be refrigerated, stored, and ready for cell seeding. […]
Cells were counted and 50,000 cells were seeded into one insert of a 12-well Boyden chamber. […]
DU-145 cells attached to the lower insert membrane were visualized and counted with standard cell visualization methods using hematoxyclin staining. […]

## Gly Arg Arg Ala Ala Pro Gly Arg Aib Gly Gly (GRRAAPGR[Aib]GG) [NRP2945, synthetic 11-mer peptidomimetic optimized for stability and pharmacokinetics]
[1]
  cells spared from apoptosis (TUNEL): 56.2%
[2]
  decrease of migrating cells: 36%
